# Source: patent publication US11696913B2, “Prolonged ectoparasite-controlling agent for animal” (MITSUI CHEMICALS AGRO, INC., priority 2017, dated 2023)
# Where two headings read alike, the source gives them in different places.
# How the values were obtained:
# Laodelphax striatellus = assay: Insecticidal testing against small brown planthopper; type: in vivo; details: 144 h, concentration 100 ppm, sprayed rice seedlings, after 6 days, read-out: pesticidal rate
# How it was run: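 Acetone solution of compound at a set concentration sprayed onto rice seedlings, air-dried, then exposed to 10 planthoppers (one group). Held at 25° C; survival rate recorded after 6 days.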
# Rhipicephalus sanguineus = assay: In vitro contact test with adult hard ticks (Rhipicephalus sanguineus); details: read-out: acaricidal activity; for pest or weed control at 0.2 µg/cm2, 0.2 µg/cm2: dose 0.2 μg/cm^2, 48 h; for pest or weed control at 1 µg/cm2, 1 µg/cm2: dose 1 μg/cm^2, 48 h; for pest or weed control at 0.04 µg/cm2, 0.04 µg/cm2: dose 0.04 μg/cm^2, 48 h
# How it was run: (§1)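 Acaricidal activity = % ticks dead or moribund after 48 h contact with acetone-deposited compound on vial walls (e.g., 900 ppm solution → 5 μg/cm^2). Ambient conditions for R. sanguineus, 21° C./85% rel. hum. for other species; heat challenge at 45-50° C. separated climbers from moribund ticks.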
# Spodoptera litura = assay: Insecticidal testing against common cutworm; type: in vivo; details: foliar, 144 h, concentration 100 ppm, cabbage leaf dip, second-stage larvae, after 6 days, read-out: pesticidal rate
# Excerpt: Insecticidal Testing Against Common Cutworm (Spodoptera litura)
# Ixodes ricinus = assay: In vitro contact test with adult hard ticks (Ixodes ricinus); details: read-out: acaricidal activity; for pest or weed control at 5 µg/cm2, 5 µg/cm2: dose 5 μg/cm^2, 48 h
# How it was run: as §1
# Plutella xylostella = assay: Insecticidal testing against diamondback moth; type: in vivo; details: foliar, 144 h, concentration 100 ppm, cabbage leaf dip, third-stage larvae, after 6 days, read-out: pesticidal rate
# Excerpt: Insecticidal Testing Against Diamondback Moth (Plutella xylostella)
# [1] = test system: Rhipicephalus (Boophilus) microplus; assay: In vitro injection test with Rhipicephalus (Boophilus) microplus (BOOPMI Inj); details: 168 h, laid fertile eggs after 7 days, read-out: acaricidal activity; for pest or weed control at 32 ng: dose 0.032 μg/animal injected; for pest or weed control at 0.00016 mg: dose 0.16 μg/animal injected; for pest or weed control at 0.0008 mg: dose 0.8 μg/animal injected
# How it was run: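 Five engorged adult females each get a 1 μl abdominal injection of compound dissolved and diluted in DMSO. Kept 7 days at 28° C./85% rel. hum.; percent activity rates egg laying and egg fertility (0% all fertile, 100% none laid or infertile).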
# Ctenocephalides felis [2] = assay: Ctenocephalides felis in-vitro feeding test with fleas (CTECFE oral); details: 48 hours, read-out: insecticidal feeding activity; for pest or weed control at 0.16 ppm: dose 0.16 ppm in citrated cattle blood; for pest or weed control at 0.8 ppm: dose 0.8 ppm in citrated cattle blood; for pest or weed control at 4 ppm: dose 4 ppm in citrated cattle blood; for pest or weed control at 0.032 ppm: dose 0.032 ppm in citrated cattle blood
# How it was run: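 Scored as percent fleas killed (0–100%) 48 hours after feeding began. Compound, dissolved in DMSO and diluted into citrated cattle blood, was offered via a parafilm membrane to roughly 20 adult male and female C. felis at about 37° C.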
# Amblyomma americanum = assay: In vitro contact test with hard ticks (Amblyomma americanum nymphs); details: read-out: acaricidal activity; for pest or weed control at 0.2 µg/cm2, 0.2 µg/cm2: dose 0.2 μg/cm^2, 48 h; for pest or weed control at 1 µg/cm2, 1 µg/cm2: dose 1 μg/cm^2, 48 h
# How it was run: as §1
# Ctenocephalides felis [3] = assay: In vitro contact test with fleas; details: read-out: insecticidal activity; for pest or weed control at 0.2 µg/cm2, 0.2 µg/cm2: dose 0.2 μg/cm^2, dead or moribund fleas after 48 h; for pest or weed control at 1 µg/cm2, 1 µg/cm2: dose 1 μg/cm^2, dead or moribund fleas after 48 h; for pest or weed control at 0.04 µg/cm2, 0.04 µg/cm2: dose 0.04 μg/cm^2, dead or moribund fleas after 48 h
# How it was run: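 Activity is the percentage of fleas dead or moribund at 48 h, judged by immobility or uncoordinated movement after tapping. Tubes were coated by evaporating acetone solutions (900 ppm gives 5 μg/cm^2), then held 5-10 adult fleas of both sexes at room temperature and ambient humidity.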
# Dermacentor variabilis = assay: In vitro contact test with adult hard ticks (Dermacentor variabilis); details: read-out: acaricidal activity; for pest or weed control at 0.2 µg/cm2, 0.2 µg/cm2: dose 0.2 μg/cm^2, 48 h; for pest or weed control at 1 µg/cm2, 1 µg/cm2: dose 1 μg/cm^2, 48 h
# How it was run: as §1
Structure (SMILES),pest or weed control at 100 ppm (Laodelphax striatellus),"pest or weed control at 0.2 µg/cm2, 0.2 µg/cm2 (Rhipicephalus sanguineus)","pest or weed control at 1 µg/cm2, 1 µg/cm2 (Rhipicephalus sanguineus)",pest or weed control at 100 ppm (Spodoptera litura),"pest or weed control at 1 µg/cm2, 1 µg/cm2 (Ixodes ricinus; dose 1 μg/cm^2, 48 h)","pest or weed control at 5 µg/cm2, 5 µg/cm2 (Ixodes ricinus)",pest or weed control at 100 ppm (Plutella xylostella),pest or weed control at 32 ng [1],pest or weed control at 0.00016 mg [1],pest or weed control at 0.0008 mg [1],pest or weed control at 0.16 ppm (Ctenocephalides felis [2]),pest or weed control at 0.8 ppm (Ctenocephalides felis [2]),pest or weed control at 4 ppm (Ctenocephalides felis [2]),"pest or weed control at 0.2 µg/cm2, 0.2 µg/cm2 (Amblyomma americanum)","pest or weed control at 1 µg/cm2, 1 µg/cm2 (Amblyomma americanum)","pest or weed control at 0.2 µg/cm2, 0.2 µg/cm2 (Ctenocephalides felis [3])","pest or weed control at 1 µg/cm2, 1 µg/cm2 (Ctenocephalides felis [3])","pest or weed control at 0.2 µg/cm2, 0.2 µg/cm2 (Dermacentor variabilis)","pest or weed control at 1 µg/cm2, 1 µg/cm2 (Dermacentor variabilis)","pest or weed control at 0.2 µg/cm2, 0.2 µg/cm2 (Ixodes ricinus; dose 0.2 μg/cm^2, 48 h)",also measured
O=C(Nc1cccc(C(=O)Nc2c(I)cc(C(F)(C(F)(F)F)C(F)(F)F)cc2S(=O)(=O)C(F)(F)F)c1F)c1ccc(F)cc1 [Compound 64],≥ 70%,90%,90%,≥ 70%,90%,90%,≥ 70%,100%,100%,100%,95%,95%,95%,90%,90%,95%,95%,90%,90%,,
O=C(Nc1cccc(C(=O)Nc2c(I)cc(C(F)(C(F)(F)F)C(F)(F)F)cc2[S+]([O-])C(F)(F)F)c1F)c1ccc(F)cc1 (stereo not shown) [Compound 65],≥ 70%,90%,90%,≥ 70%,90%,90%,≥ 70%,,100%,100%,95%,95%,95%,90%,90%,95%,95%,,,,pest or weed control at 0.032 ppm (Ctenocephalides felis [2]): 95%
O=C(Nc1cccc(C(=O)Nc2c(Br)cc(C(F)(C(F)(F)F)C(F)(F)F)cc2OC(F)(F)F)c1F)c1ccc(F)cc1 [Compound 71],≥ 70%,90%,90%,≥ 70%,90%,90%,≥ 70%,100%,100%,100%,,95%,95%,90%,90%,95%,95%,90%,90%,90%,"pest or weed control at 0.04 µg/cm2, 0.04 µg/cm2 (Rhipicephalus sanguineus): 90%"
CN(C(=O)c1ccc(F)cc1)c1cccc(C(=O)Nc2c(Br)cc(C(F)(C(F)(F)F)C(F)(F)F)cc2OC(F)(F)F)c1F [Compound 72],≥ 70%,90%,90%,≥ 70%,90%,90%,≥ 70%,100%,100%,100%,,95%,95%,,,95%,95%,90%,90%,90%,"pest or weed control at 0.04 µg/cm2, 0.04 µg/cm2 (Rhipicephalus sanguineus): 90%"
O=C(Nc1cccc(C(=O)Nc2c(I)cc(C(F)(C(F)(F)F)C(F)(F)F)cc2OC(F)(F)F)c1F)c1ccc(F)cc1 [Compound 73],≥ 70%,90%,90%,≥ 70%,90%,90%,≥ 70%,100%,100%,100%,95%,95%,95%,90%,90%,95%,95%,90%,90%,90%,"pest or weed control at 0.04 µg/cm2, 0.04 µg/cm2 (Rhipicephalus sanguineus): 90%; pest or weed control at 0.04 µg/cm2, 0.04 µg/cm2 (Ctenocephalides felis [3]): 95%; pest or weed control at 0.04 µg/cm2, 0.04 µg/cm2 (Dermacentor variabilis; dose 0.04 μg/cm^2, 48 h): 90%"
O=C(Nc1cc(C(=O)Nc2c(I)cc(C(F)(C(F)(F)F)C(F)(F)F)cc2C(F)(F)F)ccc1F)c1ccc(F)cc1 [Compound 84],≥ 70%,90%,90%,≥ 70%,90%,90%,≥ 70%,100%,100%,100%,95%,95%,95%,90%,90%,,,90%,90%,90%,"pest or weed control at 0.04 µg/cm2, 0.04 µg/cm2 (Rhipicephalus sanguineus): 90%"
"O=C(Nc1cccc(C(=O)Nc2c(I)cc(C(F)(C(F)(F)F)C(F)(F)F)cc2C(F)(F)F)c1F)c1ccc(F)nc1 [Compound 116, 6-fluoro-N-(2-fluoro-3-((2-iodo-4-(perfluoropropan-2-yl)-6-(trifluoromethyl)phenyl)carbamoyl)phenyl)nicotinamide]",≥ 70%,,90%,≥ 70%,,,≥ 70%,100%,100%,100%,95%,95%,95%,90%,90%,95%,95%,,,,"pest or weed control at 0.2 µg/cm2, 0.2 µg/cm2 (Ixodes ricinus; 48 h): 90%; pest or weed control at 1 µg/cm2, 1 µg/cm2 (Ixodes ricinus; 48 h): 90%; pest or weed control at 0.0064 ppm (Ctenocephalides felis [2]; dose 0.0064 ppm in citrated cattle blood): 95%; pest or weed control at 0.032 ppm (Ctenocephalides felis [2]): 95%; pest or weed control at 0.04 µg/cm2, 0.04 µg/cm2 (Ctenocephalides felis [3]): 95%"
"O=C(Nc1cccc(C(=O)Nc2c(I)cc(C(F)(C(F)(F)F)C(F)(F)F)cc2OC(F)(F)F)c1F)c1ccc(C(F)(F)F)nc1 [Compound 118, N-(2-fluoro-3-((2-iodo-4-(perfluoropropan-2-yl)-6-(trifluoromethoxy)phenyl)carbamoyl)phenyl)-6-(trifluoromethyl)nicotinamide]",≥ 70%,90%,90%,≥ 70%,90%,90%,≥ 70%,100%,100%,100%,95%,95%,95%,90%,90%,95%,95%,,,90%,pest or weed control at 0.032 ppm (Ctenocephalides felis [2]): 95%
